# Literature values, collected in patent US7368249B2, “Methods and compositions for evaluation and modulation of fertility” (The Curators of the University of Missouri, priority 2003, dated 2008).
# Test system: maturing reticulocytes
# Conditions: presence vs absence of ETYA
smiles,measurement,value
"CCCCCC#CCC#CCC#CCC#CCCCC(=O)O [ETYA, 5,8,11,14-eicosatetraynoic acid]",mitochondrial degradation in maturing reticulocytes,delayed
